Values quoted from earlier work in patent publication US20140370105A1, “TREATMENT OF INFLAMMATORY BOWEL DISEASE WITH 6-MERCAPTOPURINE” (Teva Pharmaceutical Industries, Ltd., priority 2008, published 2014).

Test system: inflammatory bowel disease
Settings: conventional therapy

For `Sc1ncnc2nc[nH]c12` [6-MP, 6-mercaptopurine], the “time required to be effective / show effect” value (IBD / Crohn's disease patients) is listed as 3-4 months and the “time required to show any benefit” value (IBD patients) is listed as “at least 12 weeks”.
